# Active and inactive are the calls of the source. The rule behind the calls is not given here. Where a SMILES comes first, the peptide text is derived from it.
# Key:
# [1] = biological target: T1, B-cell lymphoma 6 protein (Homo sapiens, UniProt P41182); experiment: Binding affinity to recombinant N-terminal GST-tagged/RED-NHS labelled wild-type BCL6 BTB domain (5 to 129 residues) (unknown origin) expressed in Escherichia coli Rosetta BL21 (DE3) at 1 mM incubated for 30 mins under dark condition in by single-point microscale thermophoresis method
# [2] = tested on: B-cell lymphoma 6 protein (Homo sapiens), P41182 [C8Q,C67R,C84N]; experiment: (§1) Binding affinity to recombinant RED-NHS labelled BCL6 BTB domain (unknown origin) C8Q/C67R/C84N triple mutant expressed in Escherichia coli Rosetta BL21 (DE3) incubated for 30 mins under dark condition in presence of DTT by microscale thermophoresis method
# [3] = tested on: B-cell lymphoma 6 protein (Homo sapiens), P41182 [C8Q,C67R,C84N]; experiment: as §1, with “(DE3) assessed as decrease in SMRT2 peptide binding” for “(DE3)”, “condition” for “condition in presence of DTT”, “method relative to control” for “method”
# [4] = biological target: B-cell lymphoma 6 protein (Homo sapiens, UniProt P41182, C67R/C84N/C8Q); experiment: Binding affinity to recombinant RED-NHS labelled BCL6 BTB domain (unknown origin) C8Q/C67R/C84N triple mutant expressed in Escherichia coli Rosetta BL21 (DE3) incubated for 30 mins under dark condition by microscale thermophoresis method; conditions: read-out: Kd(app)
# [5] = tested on: B-cell lymphoma 6 protein (Homo sapiens), P41182 [C8Q,C67R,C84N]; experiment: Inhibition of recombinant BCL6 C8Q/C67R/C84N triple mutant BTB domain dimerization (unknown origin) expressed in Escherichia coli Rosetta BL21 (DE3) at 500 uM by size exclusion chromatographic method
# [6] = biological target: T1, B-cell lymphoma 6 protein; experiment: Stabilization of recombinant N-terminal GST-tagged wild-type BCL6 BTB domain (5 to 129 residues) (unknown origin) expressed in Escherichia coli Rosetta BL21 (DE3) assessed as change in melting temperature measured every 30 secs by SYPRO orange dye based thermal shift assay
# [7] = tested on: B-cell lymphoma 6 protein (Homo sapiens), P41182 [C8Q,C67R,C84N]; experiment: Stabilization of recombinant BCL6 BTB domain (unknown origin) C8Q/C67R/C84N triple mutant expressed in Escherichia coli Rosetta BL21 (DE3) assessed as change in melting temperature measured every 30 secs by SYPRO orange dye based thermal shift assay
# [8] = biological target: T1, B-cell lymphoma 6 protein; experiment: Binding affinity to recombinant N-terminal GST-tagged/RED-NHS labelled wild-type BCL6 BTB domain (5 to 129 residues) (unknown origin) expressed in Escherichia coli Rosetta BL21 (DE3) incubated for 30 mins under dark condition in presence of DTT by microscale thermophoresis method
# [9] = biological target: T1, B-cell lymphoma 6 protein; experiment: Binding affinity to recombinant N-terminal GST-tagged/RED-NHS labelled wild-type BCL6 BTB domain (5 to 129 residues) (unknown origin) expressed in Escherichia coli Rosetta BL21 (DE3) incubated for 30 mins under dark condition by microscale thermophoresis method; conditions: read-out: Kd(app)
compound,measurement,setting,value
CC[C@@H](C)[C@@H]1NC(=O)[C@H](CS)NC(=O)[C@H](C(C)C)NC(=O)[C@H](CS)NC(=O)[C@H](Cc2ccc(O)cc2)NC(=O)[C@H](C)NC1=O,Activity,[1],Active
CC[C@@H](C)[C@@H]1NC(=O)[C@H](CS)NC(=O)[C@H](C(C)C)NC(=O)[C@H](CS)NC(=O)[C@H](C)NC(=O)[C@H](Cc2ccc(O)cc2)NC1=O,Activity,[1],inactive
CC[C@@H](C)[C@@H]1NC(=O)[C@H](CS)NC(=O)[C@H](C(C)C)NC(=O)[C@H](C)NC(=O)[C@H](Cc2ccc(O)cc2)NC(=O)[C@H](Cc2ccc(O)cc2)NC1=O,Activity,[1],inactive
CC[C@@H](C)[C@@H]1NC(=O)[C@H](C)NC(=O)[C@H](C(C)C)NC(=O)[C@H](CS)NC(=O)[C@H](Cc2ccc(O)cc2)NC(=O)[C@H](Cc2ccc(O)cc2)NC1=O,Activity,[1],inactive
CC[C@@H](C)[C@@H]1NC(=O)[C@H](CS)NC(=O)[C@H](C)NC(=O)[C@H](CS)NC(=O)[C@H](Cc2ccc(O)cc2)NC(=O)[C@H](Cc2ccc(O)cc2)NC1=O,Activity,[1],Active
CC[C@@H](C)[C@@H]1NC(=O)[C@H](CS)NC(=O)[C@H](C(C)C)NC(=O)[C@H](CS)NC(=O)[C@H](Cc2ccc(O)cc2)NC(=O)[C@H](Cc2ccc(O)cc2)NC1=O,Activity,[2],inactive
same,fold change (FC),[3],3
same,Kd,[4],50 µM
same,inhibition,[5],Active
same,Activity,[6],Dose-dependent effect
same,Activity,[7],Dose-dependent effect
same,Activity,[8],inactive
same,Kd,[9],142 µM
same,Activity,[1],Active
CC(C)[C@@H]1NC(=O)[C@H](CS)NC(=O)[C@H](Cc2ccc(O)cc2)NC(=O)[C@H](Cc2ccc(O)cc2)NC(=O)[C@H](C)NC(=O)[C@H](CS)NC1=O (cyclo(AYYCVC)),Activity,[1],Active
